According to ChEMBL document CHEMBL1146745, “Studies on anti-Helicobacter pylori agents. Part 3: A novel, efficacious cephem derivative, FR193879” (Bioorg Med Chem Lett, 2004):

How the values were obtained:
[1] = molecular target: Beta-lactamase TEM (Escherichia coli) (UniProt P62593); assay: Relative stability towards penicillinase was determined
[2] = molecular target: Beta-lactamase TEM (Escherichia coli) (UniProt P62593); assay: Stability towards penicillinase was determined
[3] = molecular target: Beta-lactamase TEM (Escherichia coli) (UniProt P62593); assay: Stability towards beta-lactamase was determined in penicillinase

Q: What does the source list for `NC(=O)Cc1csc(SC2=C(C(=O)O)N3C(=O)[C@@H](NC(=O)Cc4ccccc4)[C@H]3SC2)n1`?
A: Ratio [1]: 9.38; Km [2]: 34.8 µg/mL; Vmax [3]: 1.18
